# Source: patent US20250368620A1, “ARNT Degrading Compounds and Uses Thereof” (Celgene Corporation, priority 2024, published 2025)
# Target: T1, ARNT (Homo sapiens, UniProt P27540)
# T1 construct: an sgRNA targeting the C-terminus of the ARNT gene near the stop codon; endogenous in cells; host or cells: HEK293 ARNT-HiBiT knock-in, homozygous clone
# Test: ARNT degradation in a HiBiT system (HEK293 ARNT-HiBiT Knock-In cell line)
# Type: cell-based
# Conditions: half-maximal degradation concentration; HEK293 ARNT-HiBiT KI cells, 4h of treatment, luminescence
# Protocol: Compounds of Formula (I) were tested for ARNT degradation in a HiBiT system. A HEK293 ARNT-HiBiT Knock-In cell line was generated using CRISPR/Cas9 technology. Briefly, HEK293 cells were electroporated with the Neon system with an sgRNA targeting the C-terminus of the ARNT gene near the stop codon ([…] (SEQ ID NO: 1); chr 1: 150,812,014-150,812,034) and the HiBiT donor DNA template (80 nucleotides homology arms upstream and downstream of the insert site, with a GSGS (SEQ ID NO: 2) linker). A homozygous clone was selected after Sanger sequencing, and genetic edition was further validated using Nano-Glo HiBiT blotting system. HEK293 ARNT-HiBiT KI cells were cultured in DMEM+10% FBS at 37° C. and 5% CO2. For the assay, cells were seeded at 10,000 cells/well in white 384 plates (Corning #3570) in 22.5 μl of culture medium without phenol red. Test compounds were spotted in 384-well plates by an acoustic dispenser (10 concentrations, semi-log dilution, in 100% DMSO). Before treatment, compounds were diluted 1:100 or 1:1,000 in culture medium without phenol red, and cells were treated with 2.5 μl of diluted compounds 18h after seeding (final top concentration: 3 or 0.3 μM). After 4h of treatment, plates were equilibrated at room temperature for 30 min, and 25 μl of NANO-GLO® HiBiT Lytic reagent were added per well. Luminescence was measured on a plate reader 15 min after incubation with the detection reagent. Data were analyzed using the Genedata Screener Software version 19, and normalization was performed using the DMSO treated wells as Neutral Control and medium only (without cells) wells as Scale Reference. For curve fitting, the smart fit condensing method with a 4-parameters Hill model was used and the half-maximal degradation concentration (DC50) was calculated.
# T1 sequence (P27540 whole entry): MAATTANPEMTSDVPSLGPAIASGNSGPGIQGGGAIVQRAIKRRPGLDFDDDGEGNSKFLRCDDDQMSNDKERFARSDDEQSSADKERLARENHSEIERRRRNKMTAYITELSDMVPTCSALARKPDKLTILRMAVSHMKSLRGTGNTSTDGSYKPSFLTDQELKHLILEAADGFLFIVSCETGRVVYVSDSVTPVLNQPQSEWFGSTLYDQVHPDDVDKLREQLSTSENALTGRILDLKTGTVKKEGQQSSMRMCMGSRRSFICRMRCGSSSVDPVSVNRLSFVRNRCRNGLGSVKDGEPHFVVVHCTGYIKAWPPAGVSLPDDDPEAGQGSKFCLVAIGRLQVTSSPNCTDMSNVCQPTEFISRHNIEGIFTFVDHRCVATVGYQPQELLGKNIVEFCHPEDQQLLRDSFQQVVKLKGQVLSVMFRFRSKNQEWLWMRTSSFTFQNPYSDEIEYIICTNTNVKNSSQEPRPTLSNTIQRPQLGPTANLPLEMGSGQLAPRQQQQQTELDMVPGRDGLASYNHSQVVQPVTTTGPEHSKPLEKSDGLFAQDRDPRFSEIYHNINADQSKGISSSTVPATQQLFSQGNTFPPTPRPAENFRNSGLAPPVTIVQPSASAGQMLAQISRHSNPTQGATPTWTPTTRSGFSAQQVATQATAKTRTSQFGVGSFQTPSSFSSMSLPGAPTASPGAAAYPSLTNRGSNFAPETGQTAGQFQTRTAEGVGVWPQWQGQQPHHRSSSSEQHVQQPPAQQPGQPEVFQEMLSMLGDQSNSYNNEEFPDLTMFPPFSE
row,SMILES,DC50
1,"C[C@@H]1c2cc(C(=O)N3Cc4ccccc4[C@@H]3CN(C)C)ccc2C(=O)N1[C@H]1CCC(=O)NC1=O [Compound 1, (S)-3-((R)-5-((R)-1-((dimethylamino)methyl)isoin-doline-2-carbonyl)-3-methyl-1-oxoisoindolin-2-yl)piperidine-2,6-dione]",290 pM
2,"C[C@@H]1c2cc(C(=O)N3Cc4c(ccc(Cl)c4F)[C@@H]3CN(C)C)ccc2C(=O)N1[C@H]1CCC(=O)NC1=O [Compound 2, (S)-3-((R)-5-((R)-5-chloro-1-((dimethylamino)methyl)-4-fluoroisoindoline-2-carbonyl)-3-methyl-1-oxoisoindolin-2-yl)piperidine-2,6-dione]",330 pM
3,"C[C@@H]1c2cc(C(=O)N3Cc4c(Br)cccc4[C@@H]3CN(C)C)ccc2C(=O)N1[C@H]1CCC(=O)NC1=O [Compound 3, (S)-3-((R)-5-((R)-4-bromo-1-((dimethylamino)methyl)isoin-doline-2-carbonyl)-3-methyl-1-oxoisoindolin-2-yl)piperidine-2,6-dione]",390 pM
4,"C[C@@H]1c2cc(C(=O)N3Cc4c(ccc(Cl)c4F)[C@@H]3CN3CCCC3)ccc2C(=O)N1[C@H]1CCC(=O)NC1=O [Compound 4, (S)-3-((R)-5-((R)-5-chloro-4-fluoro-1-(pyrrolidin-1-ylmethyl)isoindoline-2-carbonyl)-3-methyl-1-oxoisoindolin-2-yl)piperidine-2,6-dione]",420 pM
5,"C[C@H]1c2ccc(Cl)c(F)c2CN1C(=O)c1ccc2c3c(cccc13)N(C1CCC(=O)NC1=O)C2=O (stereo partly drawn) [Compound 5, 3-(5-((S)-5-chloro-4-fluoro-1-methylisoindoline-2-carbonyl)-2-oxobenzo[cd]indol-1(2H)-yl)piperidine-2,6-dione]",420 pM
6,"C[C@@H]1c2cc(C(=O)N3Cc4c(ccc(Cl)c4F)[C@@H]3CN3CCCCC3)ccc2C(=O)N1[C@H]1CCC(=O)NC1=O [Compound 6, (S)-3-((R)-5-((R)-5-chloro-4-fluoro-1-(piperidin-1-ylmethyl)isoindoline-2-carbonyl)-3-methyl-1-oxoisoindolin-2-yl)piperidine-2,6-dione]",460 pM
7,"C[C@@H]1c2cc(C(=O)N3Cc4c(ccc(Cl)c4F)[C@@H]3CN3CC4CC3C4)ccc2C(=O)N1[C@H]1CCC(=O)NC1=O [Compound 7, (S)-3-((R)-5-((R)-1-((2-azabicyclo[2.1.1]hexan-2-yl)methyl)-5-chloro-4-fluoroisoindoline-2-carbonyl)-3-methyl-1-oxoisoindolin-2-yl)piperidine-2,6-dione]",480 pM
8,"C[C@@H]1c2cc(C(=O)N3Cc4cc(C(F)(F)F)ccc4[C@@H]3CN(C)C)ccc2C(=O)N1[C@H]1CCC(=O)NC1=O [Compound 8, (S)-3-((R)-5-((R)-1-((dimethylamino)methyl)-5-(trifluoromethyl)isoindoline-2-carbonyl)-3-methyl-1-oxoisoindolin-2-yl)piperidine-2,6-dione]",610 pM
9,"C[C@@H]1c2cc(C(=O)N3Cc4cc(Br)ccc4[C@@H]3C)ccc2C(=O)N1[C@H]1CCC(=O)NC1=O [Compound 9, (S)-3-((R)-5-((S)-5-bromo-1-methylisoindoline-2-carbonyl)-3-methyl-1-oxoisoindolin-2-yl)piperidine-2,6-dione]",660 pM
10,"C[C@@H]1c2cc(C(=O)N3Cc4c(ccc(Cl)c4F)[C@@H]3CN3CC4CCC3C4)ccc2C(=O)N1[C@H]1CCC(=O)NC1=O (stereo partly drawn) [Compound 10, (3S)-3-((3R)-5-((1R)-1-((2-azabicyclo[2.2.1]heptan-2-yl)methyl)-5-chloro-4-fluoroisoindoline-2-carbonyl)-3-methyl-1-oxoisoindolin-2-yl)piperidine-2,6-dione]",710 pM
11,"COc1cccc2c1CN(C(=O)c1ccc3c(c1)[C@@H](C)N([C@H]1CCC(=O)NC1=O)C3=O)[C@H]2CN(C)C [Compound 11, (S)-3-((R)-5-((R)-1-((dimethylamino)methyl)-4-methoxyisoindoline-2-carbonyl)-3-methyl-1-oxoisoindolin-2-yl)piperidine-2,6-dione]",720 pM
12,"C[C@@H]1c2cc(C(=O)N3Cc4c(ccc(Cl)c4F)[C@@H]3CN3CCC(F)CC3)ccc2C(=O)N1[C@H]1CCC(=O)NC1=O [Compound 12, (S)-3-((R)-5-((R)-5-chloro-4-fluoro-1-((4-fluoropiperidin-1-yl)methyl)isoindoline-2-carbonyl)-3-methyl-1-oxoisoindolin-2-yl)piperidine-2,6-dione]",730 pM
13,"C[C@@H]1c2cc(C(=O)N3Cc4cc(F)ccc4[C@@H]3C)ccc2C(=O)N1[C@H]1CCC(=O)NC1=O [Compound 13, (S)-3-((R)-5-((S)-5-fluoro-1-methylisoindoline-2-carbonyl)-3-methyl-1-oxoisoindolin-2-yl)piperidine-2,6-dione]",780 pM
14,"COc1ccc2c(c1Br)CN(C(=O)c1ccc3c(c1)[C@@H](C)N([C@H]1CCC(=O)NC1=O)C3=O)[C@H]2CN(C)C [Compound 14, (S)-3-((R)-5-((R)-4-bromo-1-((dimethylamino)methyl)-5-methoxyisoindoline-2-carbonyl)-3-methyl-1-oxoisoindolin-2-yl)piperidine-2,6-dione]",950 pM
15,"C[C@@H]1c2cc(C(=O)N3Cc4c(ccc(Cl)c4F)[C@@H]3CN3CC(F)(F)C3)ccc2C(=O)N1[C@H]1CCC(=O)NC1=O [Compound 15, (S)-3-((R)-5-((R)-5-chloro-1-((3,3-difluoroazetidin-1-yl)methyl)-4-fluoroisoindoline-2-carbonyl)-3-methyl-1-oxoisoindolin-2-yl)piperidine-2,6-dione]",1000 pM
16,"C[C@H]1c2ccc(C(F)(F)F)cc2CN1C(=O)c1ccc2c3c(cccc13)N(C1CCC(=O)NC1=O)C2=O (stereo partly drawn) [Compound 16, 3-(5-((S)-1-methyl-5-(trifluoromethyl)isoindoline-2-carbonyl)-2-oxobenzo[cd]indol-1(2H)-yl)piperidine-2,6-dione]",1000 pM
17,"C[C@@H]1c2cc(C(=O)N3Cc4c(ccc(Cl)c4F)[C@@H]3CN3CCC3)ccc2C(=O)N1[C@H]1CCC(=O)NC1=O [Compound 17, (S)-3-((R)-5-((R)-1-(azetidin-1-ylmethyl)-5-chloro-4-fluoroisoindoline-2-carbonyl)-3-methyl-1-oxoisoindolin-2-yl)piperidine-2,6-dione]",1200 pM
18,"Cc1c(C2CC2)ccc2c1CN(C(=O)c1ccc3c(c1)[C@@H](C)N([C@H]1CCC(=O)NC1=O)C3=O)[C@H]2C [Compound 18, (S)-3-((R)-5-((S)-5-cyclopropyl-1,4-dimethylisoindoline-2-carbonyl)-3-methyl-1-oxoisoindolin-2-yl)piperidine-2,6-dione]",1200 pM
19,"C[C@@H]1c2cc(C(=O)N3Cc4c(ccc(Br)c4F)[C@@H]3C)ccc2C(=O)N1[C@H]1CCC(=O)NC1=O [Compound 19, (S)-3-((R)-5-((S)-5-bromo-4-fluoro-1-methylisoindoline-2-carbonyl)-3-methyl-1-oxoisoindolin-2-yl)piperidine-2,6-dione]",1200 pM
20,"C[C@@H]1c2cc(C(=O)N3Cc4cc(C(F)(F)F)ccc4[C@@H]3C)c(F)cc2C(=O)N1[C@H]1CCC(=O)NC1=O [Compound 20, (S)-3-((R)-5-fluoro-1-methyl-6-((S)-1-methyl-5-(trifluoromethyl)isoindoline-2-carbonyl)-3-oxoisoindolin-2-yl)piperidine-2,6-dione]",1300 pM
21,"C[C@@H]1c2cc(C(=O)N3Cc4cc(F)c(F)cc4[C@@H]3C)ccc2C(=O)N1[C@H]1CCC(=O)NC1=O [Compound 21, (S)-3-((R)-5-((S)-5,6-difluoro-1-methylisoindoline-2-carbonyl)-3-methyl-1-oxoisoindolin-2-yl)piperidine-2,6-dione]",1300 pM
22,"COc1c(Br)ccc2c1CN(C(=O)c1ccc3c(c1)[C@@H](C)N([C@H]1CCC(=O)NC1=O)C3=O)[C@H]2C [Compound 22, (S)-3-((R)-5-((S)-5-bromo-4-methoxy-1-methylisoindoline-2-carbonyl)-3-methyl-1-oxoisoindolin-2-yl)piperidine-2,6-dione]",1300 pM
23,"CCOc1ccc2c(c1C)CN(C(=O)c1ccc3c(c1)[C@@H](C)N([C@H]1CCC(=O)NC1=O)C3=O)[C@H]2C [Compound 23, (S)-3-((R)-5-((S)-5-ethoxy-1,4-dimethylisoindoline-2-carbonyl)-3-methyl-1-oxoisoindolin-2-yl)piperidine-2,6-dione]",1300 pM
24,"C[C@@H]1c2cc(C(=O)N3Cc4c(ccc(Br)c4Cl)[C@@H]3C)ccc2C(=O)N1[C@H]1CCC(=O)NC1=O [Compound 24, (S)-3-((R)-5-((S)-5-bromo-4-chloro-1-methylisoindoline-2-carbonyl)-3-methyl-1-oxoisoindolin-2-yl)piperidine-2,6-dione]",1300 pM
25,"Cc1ccc2c(c1F)CN(C(=O)c1cc3c(cc1F)C(=O)N([C@H]1CCC(=O)NC1=O)[C@@H]3C)[C@H]2C [Compound 25, (S)-3-((R)-5-fluoro-6-((S)-4-fluoro-1,5-dimethylisoindoline-2-carbonyl)-1-methyl-3-oxoisoindolin-2-yl)piperidine-2,6-dione]",1600 pM
